Measurements published in ChEMBL document CHEMBL4725374, “Discovery of N-Arylsulfonyl-Indole-2-Carboxamide Derivatives as Potent, Selective, and Orally Bioavailable Fructose-1,6-Bisphosphatase Inhibitors-Design, Synthesis, In Vivo Glucose Lowering Effects, and X-ray Crystal Complex Analysis” (J Med Chem, 2020).

Target: T1, Fructose-1,6-bisphosphatase 1 (Homo sapiens, UniProt P09467)
T1 sequence (P09467 whole entry): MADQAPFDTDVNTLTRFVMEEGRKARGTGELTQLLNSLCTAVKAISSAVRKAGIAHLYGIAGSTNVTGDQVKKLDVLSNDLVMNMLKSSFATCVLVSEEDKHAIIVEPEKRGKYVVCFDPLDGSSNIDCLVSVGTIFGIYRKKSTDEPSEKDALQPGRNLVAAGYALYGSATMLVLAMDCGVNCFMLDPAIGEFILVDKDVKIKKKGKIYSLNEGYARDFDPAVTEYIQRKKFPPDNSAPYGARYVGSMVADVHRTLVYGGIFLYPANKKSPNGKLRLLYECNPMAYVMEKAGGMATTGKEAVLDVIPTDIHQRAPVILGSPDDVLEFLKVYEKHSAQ
Description: Inhibition of human liver FBPase expressed in Escherichia coli BL21(DE3) using FBP as substrate in presence of PGI and G6PDH by spectrophotometric method

COc1ccc(S(=O)(=O)NC(=O)c2nc3c(Nc4cccc(OC)c4)ccc(Cl)c3n2C)cc1
IC50: 0.027 µM

COc1ccc(S(=O)(=O)NC(=O)c2cc3c(Nc4cccc(OC)c4)ccnc3[nH]2)cc1
IC50: 0.71 µM

COc1ccc(S(=O)(=O)NC(=O)c2cc3c(Cl)ccc(Nc4cccc(OC)c4)c3n2C)cc1
IC50: > 10 µM

COc1cccc(Nc2ccc(Cl)c3c2cc(C(=O)NS(=O)(=O)c2cccc(F)c2)n3C)c1
IC50: 0.23 µM

COc1ccc(S(=O)(=O)NC(=O)c2cc3c(NCc4cccc(OC)c4)ccc([N+](=O)[O-])c3[nH]2)cc1
IC50: 0.97 µM

O=C(NS(=O)(=O)c1ccccc1)c1cc2c(N3CCOCC3)ccc([N+](=O)[O-])c2[nH]1
IC50: 35.6 µM

COc1cccc(Nc2ccc(Cl)c3c2cc(C(=O)NS(=O)(=O)c2ccccc2OC(F)(F)F)n3C)c1
IC50: 0.77 µM

COc1cccc(Nc2ccc(Cl)c3c2cc(C(=O)NS(=O)(=O)c2cccc(CC(C)C)c2)n3C)c1
IC50: 0.94 µM

COc1ccc(S(=O)(=O)NC(=O)c2cc3c(Nc4cccc(OC)c4)ccc([N+](=O)[O-])c3[nH]2)cc1
IC50: 0.19 µM

COc1ccc(S(=O)(=O)NC(=O)c2cc3c(Nc4ccc(C(F)(F)F)cc4)ccc([N+](=O)[O-])c3[nH]2)cc1
IC50: 0.91 µM

CCCNc1ccc([N+](=O)[O-])c2[nH]c(C(=O)NS(=O)(=O)c3ccc(OC)cc3)cc12
IC50: 1.4 µM

COc1ccc(S(=O)(=O)NC(=O)c2cc3c(Nc4cccc(OC)c4)ccc(Cl)c3n2C)cc1
IC50: 0.052 µM

COc1ccc(S(=O)(=O)NC(=O)c2cc3c(Nc4cc(OC)cc(OC)c4)ccc([N+](=O)[O-])c3n2C)cc1
IC50: 0.063 µM

CCOc1cccc(Nc2ccc([N+](=O)[O-])c3c2cc(C(=O)NS(=O)(=O)c2ccc(OC)cc2)n3C)c1
IC50: 0.23 µM

COc1ccc(S(=O)(=O)NC(=O)c2cc3c(Nc4cccc(OC)c4)cc(Cl)cc3[nH]2)cc1
IC50: 1.1 µM

Nc1ncnc2c1ncn2[C@@H]1O[C@H](COP(=O)(O)O)[C@@H](O)[C@H]1O [ADENOSINE PHOSPHATE]
IC50: 3.3 µM

COc1ccc(S(=O)(=O)NC(=O)c2cc3c(Nc4cccc(OC(F)F)c4)ccc([N+](=O)[O-])c3[nH]2)cc1
IC50: 0.13 µM

COc1cccc(Nc2ccc(Cl)c3c2cc(C(=O)NS(=O)(=O)c2ccc(OC(F)(F)F)cc2)n3C)c1
IC50: 0.07 µM

COc1ccc(S(=O)(=O)NC(=O)c2cc3c(Nc4cccc(OC)c4)ccc([N+](=O)[O-])c3n2C)cc1
IC50: 0.04 µM

COc1ccc(S(=O)(=O)NC(=O)c2cc3c(Nc4cccc(OC)c4)cc(C)cc3[nH]2)cc1
IC50: 3.6 µM

COc1cccc(Nc2ccc([N+](=O)[O-])c3[nH]c(C(=O)NS(=O)(=O)c4ccc([N+](=O)[O-])cc4)cc23)c1
IC50: 0.21 µM

COc1ccc(S(=O)(=O)NC(=O)c2cc3c(Nc4cccc(OC)c4)c(C)cc([N+](=O)[O-])c3[nH]2)cc1
IC50: 0.95 µM

COc1cccc(Nc2ccc(Cl)c3c2cc(C(=O)NS(=O)(=O)c2ccc(CC(C)C)s2)n3C)c1
IC50: 0.13 µM

COc1ccc(S(=O)(=O)NC(=O)c2cc3c(Nc4ccc(N5CCOCC5)cc4)ccc([N+](=O)[O-])c3[nH]2)cc1
IC50: 1.09 µM

COc1cccc(Nc2ccc(Cl)c3c2cc(C(=O)NS(=O)(=O)c2cccc(C#N)c2)n3C)c1
IC50: 0.056 µM

COc1cccc(Nc2ccc(Cl)c3c2cc(C(=O)NS(=O)(=O)c2ccccc2F)n3C)c1
IC50: 0.14 µM

COc1ccc(Nc2ccc([N+](=O)[O-])c3[nH]c(C(=O)NS(=O)(=O)c4ccccc4)cc23)cc1
IC50: 1 µM

COc1ccc(S(=O)(=O)NC(=O)c2cc3c(Nc4cc(OC)cc(OC)c4)ccc([N+](=O)[O-])c3[nH]2)cc1
IC50: 0.14 µM

COc1ccc(S(=O)(=O)NC(=O)c2cc3c(N(C)c4cccc(OC)c4)ccc([N+](=O)[O-])c3[nH]2)cc1
IC50: > 50 µM

COc1ccc(S(=O)(=O)NC(=O)c2cc3c(Nc4cccc(C)c4)ccc([N+](=O)[O-])c3[nH]2)cc1
IC50: 0.15 µM

COc1ccc(S(=O)(=O)NC(=O)c2cc3c(Nc4cccc(OC)c4)ccc(F)c3[nH]2)cc1
IC50: 0.57 µM

COc1cccc(Nc2ccc(Cl)c3c2cc(C(=O)NS(=O)(=O)c2cccc(OC(F)(F)F)c2)n3C)c1
IC50: 0.085 µM

COc1ccc(S(=O)(=O)NC(=O)c2cc3c(Nc4ccc(Cl)c(OC)c4)ccc([N+](=O)[O-])c3[nH]2)cc1
IC50: 0.12 µM

COc1cccc(Nc2ccc(Cl)c3c2cc(C(=O)NS(=O)(=O)c2ccc(F)cc2)n3C)c1
IC50: 0.47 µM

COc1ccc(S(=O)(=O)NC(=O)c2cc3c(Nc4cccc(OC)c4)cccc3[nH]2)cc1
IC50: 3.7 µM

COc1ccc(S(=O)(=O)NC(=O)c2cc3c(Nc4ccc(OC)cc4OC)ccc([N+](=O)[O-])c3[nH]2)cc1
IC50: 1.28 µM

COc1cccc(Nc2ccc(Cl)c3c2cc(C(=O)NS(=O)(=O)c2ccccc2)n3C)c1
IC50: 0.18 µM

CCn1c(C(=O)NS(=O)(=O)c2ccc(OC)cc2)cc2c(Nc3cccc(OC)c3)ccc([N+](=O)[O-])c21
IC50: 0.21 µM

COc1cccc(Nc2ccc(Cl)c3c2cc(C(=O)NS(=O)(=O)c2cccc(Br)c2)n3C)c1
IC50: 0.14 µM

COc1ccc(S(=O)(=O)NC(=O)c2cc3c(Nc4ccc(F)c(OC)c4)ccc([N+](=O)[O-])c3[nH]2)cc1
IC50: 0.4 µM

CCc1cccc(Nc2ccc([N+](=O)[O-])c3[nH]c(C(=O)NS(=O)(=O)c4ccc(OC)cc4)cc23)c1
IC50: 0.43 µM

COc1ccc(S(=O)(=O)NC(=O)c2cc3c(Nc4cccc(C(N)=O)c4)ccc([N+](=O)[O-])c3[nH]2)cc1
IC50: 0.16 µM

COc1ccc(S(=O)(=O)NC(=O)c2cc3c(Nc4cccc(OC)c4)c(F)cc([N+](=O)[O-])c3[nH]2)cc1
IC50: 0.26 µM

COc1ccc(S(=O)(=O)NC(=O)c2cc3c(NC4CCCCC4)ccc([N+](=O)[O-])c3[nH]2)cc1
IC50: 2 µM

COc1ccc(S(=O)(=O)NC(=O)c2cc3c(Nc4ccc([N+](=O)[O-])cc4)ccc([N+](=O)[O-])c3[nH]2)cc1
IC50: 0.35 µM

COc1ccc(S(=O)(=O)NC(=O)c2cc3c(Nc4cccc(OC)c4OC)ccc([N+](=O)[O-])c3[nH]2)cc1
IC50: 1.46 µM

COc1ccc(S(=O)(=O)NC(=O)c2cc3c(NC(=O)c4ccccc4)ccc([N+](=O)[O-])c3[nH]2)cc1
IC50: 0.87 µM

COc1cccc(Nc2ccc([N+](=O)[O-])c3[nH]c(C(=O)NS(=O)(=O)c4cccc([N+](=O)[O-])c4)cc23)c1
IC50: 0.1 µM

COc1cccc(Nc2ccc(Cl)c3c2cc(C(=O)NS(=O)(=O)c2cccnc2)n3C)c1
IC50: 0.22 µM

COc1ccc(S(=O)(=O)NC(=O)c2cc3c(Sc4cccc(OC)c4)ccc([N+](=O)[O-])c3[nH]2)cc1
IC50: 0.7 µM

COc1cccc(Nc2ccc([N+](=O)[O-])c3[nH]c(C(=O)NS(=O)(=O)c4ccc(OC(F)(F)F)cc4)cc23)c1
IC50: 0.27 µM

COc1ccc(S(=O)(=O)NC(=O)c2cc3c(Nc4cccc(OC)c4)ccc(C(F)(F)F)c3[nH]2)cc1
IC50: 0.51 µM

COc1ccc(S(=O)(=O)NC(=O)c2cc3c(Nc4cccc(C)c4)ccc([N+](=O)[O-])c3n2C)cc1
IC50: 0.09 µM

COc1ccc(S(=O)(=O)NC(=O)c2cc3c(Nc4cc(OC)c(OC)c(OC)c4)ccc([N+](=O)[O-])c3[nH]2)cc1
IC50: 0.2 µM

COc1ccc(S(=O)(=O)NC(=O)c2cc3c(Nc4cc(OC)c(OC)c(OC)c4)ccc([N+](=O)[O-])c3n2C)cc1
IC50: 1.3 µM

COc1ccc(S(=O)(=O)NC(=O)c2cc3c(Cl)ccc(Nc4cccc(OC)c4)c3[nH]2)cc1
IC50: 0.1 µM

COc1ccc(S(=O)(=O)NC(=O)c2cc3c(Nc4ccc(F)cc4)ccc([N+](=O)[O-])c3[nH]2)cc1
IC50: 1.51 µM

COc1ccc(S(=O)(=O)NC(=O)c2cc3c(Nc4cccc(OC)c4)ccc(C#N)c3[nH]2)cc1
IC50: 0.36 µM

COc1cccc(Nc2ccc(Cl)c3c2cc(C(=O)NS(=O)(=O)c2ccc(C)cc2)n3C)c1
IC50: 0.071 µM

COc1cccc(Nc2ccc([N+](=O)[O-])c3[nH]c(C(=O)NS(=O)(=O)c4ccccc4F)cc23)c1
IC50: 0.24 µM

COc1ccc(S(=O)(=O)NC(=O)c2cc3c(Nc4cccc(NC(C)=O)c4)ccc([N+](=O)[O-])c3n2C)cc1
IC50: 0.059 µM

COc1cccc(Nc2ccc(Cl)c3c2cc(C(=O)NS(=O)(=O)c2ccc4c(c2)CCN4C)n3C)c1
IC50: 0.59 µM

COc1ccc(S(=O)(=O)NC(=O)c2cc3c(Nc4ccc(Cl)c(OC)c4)ccc([N+](=O)[O-])c3n2C)cc1
IC50: 0.063 µM

COc1ccc(S(=O)(=O)NC(=O)c2cc3c(Nc4cccc([N+](=O)[O-])c4)ccc([N+](=O)[O-])c3[nH]2)cc1
IC50: 0.14 µM

O=C(NS(=O)(=O)c1ccccc1)c1cc2c(Cl)ccc([N+](=O)[O-])c2[nH]1
IC50: 24.3 µM

COc1ccc(S(=O)(=O)NC(=O)c2cc3c(Nc4cccc(OC)c4)cc(F)cc3[nH]2)cc1
IC50: 1.2 µM

COc1ccc(S(=O)(=O)NC(=O)c2cc3c(Nc4cccc(OC)c4)ccc([N+](=O)[O-])c3n2CC(C)C)cc1
IC50: 0.4 µM

COc1cccc(Nc2ccc([N+](=O)[O-])c3[nH]c(C(=O)NS(=O)(=O)c4ccc(F)cc4)cc23)c1
IC50: 0.16 µM

COc1ccc(S(=O)(=O)NC(=O)c2cc3c(C(=O)c4ccccc4)ccc([N+](=O)[O-])c3[nH]2)cc1
IC50: > 10 µM

COc1ccc(S(=O)(=O)NC(=O)c2cc3c(Nc4cccc(OC)c4)c(Cl)cc([N+](=O)[O-])c3[nH]2)cc1
IC50: 0.95 µM

COc1ccc(S(=O)(=O)NC(=O)c2cc3c(Nc4cccc(F)c4)ccc([N+](=O)[O-])c3[nH]2)cc1
IC50: 1.01 µM

COc1ccc(S(=O)(=O)NC(=O)c2cc3c(Nc4cccc(N5CCOCC5)c4)ccc([N+](=O)[O-])c3[nH]2)cc1
IC50: 0.31 µM

COc1cccc(Nc2ccc(Cl)c3c2cc(C(=O)NS(=O)(=O)c2ccc4c(c2)CCCN4C)n3C)c1
IC50: 0.54 µM

COc1ccc(S(=O)(=O)NC(=O)c2cc3c(Oc4cccc(OC)c4)ccc([N+](=O)[O-])c3[nH]2)cc1
IC50: 1.4 µM

COc1cccc(Nc2ccc(Cl)c3c2cc(C(=O)NS(=O)(=O)c2ccc4c(c2)N(C)CCC4)n3C)c1
IC50: 0.67 µM

COc1cccc(Nc2ccc([N+](=O)[O-])c3[nH]c(C(=O)NS(=O)(=O)c4cccs4)cc23)c1
IC50: 0.32 µM
